How the values were obtained:
MV-4-11 cells = experiment: Cell growth inhibition assay (CellTiter-Glo), MV-4-11; assay type: cell-based; conditions: Homo sapiens, MV4-11
Method in brief: (§1)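 Cellular ATP (CellTiter-Glo luminescence) measured after 4 days at 37° C., 5% CO2 of compound exposure, top concentration 10 μM in 3-fold steps, 0.1% DMSO. Readings corrected for no-cell background and a day-0 plate, normalised to vehicle and medium wells; half-maximal and total growth inhibition from four-parameter curves.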

K-562 cells = experiment: Cell growth inhibition assay (CellTiter-Glo), K-562; assay type: cell-based, human; conditions: for GI50: Homo sapiens, K562
Method in brief: as §1

THP-1 cells = experiment: Cell growth inhibition assay (CellTiter-Glo), THP-1; assay type: cell-based; conditions: Homo sapiens
Method in brief: as §1

| GI50 (MV-4-11 cells) [nM] | GI50 (K-562 cells) [nM] | GI50 (THP-1 cells) [nM] | Compound | IC (TGI) (K-562 cells) [nM] |
| --- | --- | --- | --- | --- |
| 20.4 | 187 | 30.4 | Cc1nn(-c2ccnn2C)c2c1C(c1ccc(Cl)cc1)N(c1cc(C)c3nnc(C)n3n1)C2=O (stereo not drawn) [Example 114, 4-(4-chlorophenyl)-5-(3,8-dimethyl-[1,2,4]triazolo[4,3-b]pyridazin-6-yl)-3-methyl-1-(1-methyl-1H-pyrazol-5-yl)-4,5-dihydropyrrolo-[3,4-c]pyrazol-6(1H)-one] | – |
| 22.4 | 142 | 34.8 | CCn1nc2c(c1C)C(c1ccc(Cl)cc1)N(c1cc(C)c3nnc(C)n3c1)C2=O (stereo not drawn) [Example 115, 4-(4-chlorophenyl)-5-(3,8-dimethyl-[1,2,4]triazolo[4,3-a]pyridin-6-yl)-2-ethyl-3-methyl-4,5-dihydropyrrolo-[3,4-c]pyrazol-6(2H)-one] | – |
| 12.5 | 81.2 | 18.8 | CCn1nc(C)c2c1C(=O)N(c1cc(C)c3nnc(C)n3c1)C2c1ccc(Cl)cc1 (stereo not drawn) [Example 116, 4-(4-chlorophenyl)-5-(3,8-dimethyl-[1,2,4]triazolo[4,3-a]pyridin-6-yl)-1-ethyl-3-methyl-4,5-dihydropyrrolo-[3,4-c]pyrazol-6(1H)-one] | – |
| 18.6 | 150 | 31.8 | Cc1cc(N2C(=O)c3c(c(C4CC4)nn3-c3ccnn3C)C2c2ccc(Cl)cc2)cn2c(C)nnc12 (stereo not drawn) [Example 117, 4-(4-chlorophenyl)-3-cyclopropyl-5-(3,8-dimethyl-[1,2,4]triazolo[4,3-a]pyridin-6-yl)-1-(1-methyl-1H-pyrazol-5-yl)-4,5-dihydropyrrolo-[3,4-c]pyrazol-6(1H)-one] | – |
| 6.15 | 62 | 9.45 | Cc1nn(C2CC2)c2c1[C@@H](c1ccc(Cl)cc1)N(c1cc(C)c3nnc(C)n3c1)C2=O [Example 119, (R)-4-(4-chlorophenyl)-1-cyclopropyl-5-(3,8-dimethyl-[1,2,4]triazolo[4,3-a]pyridin-6-yl)-3-methyl-4,5-dihydropyrrolo-[3,4-c]pyrazol-6(1H)-one] | >10000 |
| 55.7 | 402 | 79.2 | Cc1nn(-c2ccnn2C)c2c1[C@@H](c1ccc(Cl)cc1)N(c1cc(C)c(=O)n(C)c1)C2=O [Example 120, (R)-4-(4-chlorophenyl)-5-(1,5-dimethyl-6-oxo-1,6-dihydropyridin-3-yl)-3-methyl-1-(1-methyl-1H-pyrazol-5-yl)-4,5-dihydropyrrolo-[3,4-c]pyrazol-6(1H)-one] | >10000 |
| 830 | 9710 | 2110 | Cc1nn(-c2ccnn2C)c2c1[C@H](c1ccc(Cl)cc1)N(c1cc(C)c(=O)n(C)c1)C2=O [Example 121, (S)-4-(4-chlorophenyl)-5-(1,5-dimethyl-6-oxo-1,6-dihydropyridin-3-yl)-3-methyl-1-(1-methyl-1H-pyrazol-5-yl)-4,5-dihydropyrrolo-[3,4-c]pyrazol-6(1H)-one] | – |
| 3.41 | 24.1 | 4.32 | Cc1nn(C2CC2)c2c1[C@@H](c1ccc(Cl)cc1)N(c1cc(C)c3nnc(C)n3n1)C2=O [Example 122, (R)-4-(4-chlorophenyl)-1-cyclopropyl-5-(3,8-dimethyl-[1,2,4]triazolo[4,3-b]-pyridazin-6-yl)-3-methyl-4,5-dihydropyrrolo[3,4-c]pyrazol-6(1H)-one] | – |
| 2870 | 9400 | 5880 | Cc1nn(C2CC2)c2c1[C@H](c1ccc(Cl)cc1)N(c1cc(C)c3nnc(C)n3n1)C2=O [Example 123, (S)-4-(4-chlorophenyl)-1-cyclopropyl-5-(3,8-dimethyl-[1,2,4]triazolo[4,3-b]pyridazin-6-yl)-3-methyl-4,5-dihydropyrrolo-[3,4-c]pyrazol-6(1H)-one] | – |
| 296 | 2520 | 695 | Cc1nn(-c2ccnn2C)c2c1[C@H](c1ccc(Cl)cc1)N(c1cc(C)c3nnc(C)n3c1)C2=O [Example 124, (S)-4-(4-chlorophenyl)-5-(3,8-dimethyl-[1,2,4]triazolo[4,3-a]pyridin-6-yl)-3-methyl-1-(1-methyl-1H-pyrazol-5-yl)-4,5-dihydropyrrolo[3,4-c]pyrazol-6(1H)-one] | – |
| 18.7 | 101 | 25.8 | Cc1nn(-c2ccnn2C)c2c1[C@@H](c1ccc(Cl)cc1)N(c1cc(C)c3nnc(C)n3c1)C2=O [Example 125, (R)-4-(4-chlorophenyl)-5-(3,8-dimethyl-[1,2,4]triazolo[4,3-a]pyridin-6-yl)-3-methyl-1-(1-methyl-1H-pyrazol-5-yl)-4,5-dihydropyrrolo[3,4-c]pyrazol-6(1H)-one] | >10000 |
| 404 | 4150 | 576 | CC(=O)Nc1cc(N2C(=O)c3c(c(C)nn3C3CC3)C2c2ccc(Cl)cc2)nn2c(C)nnc12 (stereo not drawn) [Example 126, N-(6-(4-(4-chlorophenyl)-1-cyclopropyl-3-methyl-6-oxopyrrolo[3,4-c]pyrazol-5-(1H,4H,6H)-yl)-3-methyl-[1,2,4]triazolo[4,3-b]pyridazin-8-yl)acetamide] | – |
| 2260 | > 10000 | 4230 | COc1ncccc1-n1nc(C)c2c1C(=O)N(c1cc(C)c(=O)n(C)c1)[C@H]2c1ccc(Cl)cc1 [Example 127, (S)-4-(4-chlorophenyl)-5-(1,5-dimethyl-6-oxo-1,6-dihydropyridin-3-yl)-1-(2-methoxypyridin-3-yl)-3-methyl-4,5-dihydropyrrolo-[3,4-c]pyrazol-6(1H)-one] | – |
| 34.5 | 183 | 64.6 | COc1ncccc1-n1nc(C)c2c1C(=O)N(c1cc(C)c(=O)n(C)c1)[C@@H]2c1ccc(Cl)cc1 [Example 128, (R)-4-(4-chlorophenyl)-5-(1,5-dimethyl-6-oxo-1,6-dihydropyridin-3-yl)-1-(2-methoxypyridin-3-yl)-3-methyl-4,5-dihydropyrrolo-[3,4-c]pyrazol-6(1H)-one] | >10000 |
| 16.1 | 195 | 35.7 | COCc1nn(C2CC2)c2c1C(c1ccc(Cl)cc1)N(c1cc(C)c3nnc(C)n3c1)C2=O (stereo not drawn) [Example 130, 4-(4-chlorophenyl)-1-cyclopropyl-5-(3,8-dimethyl-[1,2,4]triazolo[4,3-a]pyridin-6-yl)-3-(methoxymethyl)-4,5-dihydropyrrolo[3,4-c]pyrazol-6(1H)-one] | >10000 |
| 24.5 | 215 | 59.7 | Cc1cc(N2C(=O)c3c(c(CO)nn3C3CC3)C2c2ccc(Cl)cc2)cn2c(C)nnc12 (stereo not drawn) [Example 131, 4-(4-chlorophenyl)-1-cyclopropyl-5-(3,8-dimethyl-[1,2,4]triazolo[4,3-a]pyridin-6-yl)-3-(hydroxymethyl)-4,5-dihydropyrrolo-[3,4-c]pyrazol-6(1H)-one] | >10000 |
| 69 | 451 | 166 | Cc1cc(N2C(=O)c3c(c(CO)nn3C3CC3)C2c2ccc(Cl)cc2)cn(C)c1=O (stereo not drawn) [Example 133, 4-(4-chlorophenyl)-1-cyclopropyl-5-(1,5-dimethyl-6-oxo-1,6-dihydropyridin-3-yl)-3-(hydroxymethyl)-4,5-dihydropyrrolo-[3,4-c]pyrazol-6(1H)-one] | – |
